{"source": "patent US5475029A", "about": "“Farnesyl compounds as cholesterol lowering agents” (The Board of Trustees of the Leland Stanford Junior …, priority 1993, dated 1995)", "assay_type_in_all_cases": "cell-based", "key": {"[1]": {"tested_on": "β-galactosidase", "assay": "β-galactosidase activity in CHO-Gal control cells", "procedure": "β-galactosidase Specific Activity--In vitro β-galactosidase activity was measured using the substrate, o-nitrophenyl-β-D-galactopyranoside. Specific activities were calculated using protein concentration values.\nTo confirm that the reduction in HMGal activity was the result of a regulatory function specifically targeting the membrane domain of HMGal, the effects of farnesyl acetate on β-galactosidase activity were measured in vitro for both CHO-HMGal cells and CHO-Gal cells. The CHO-Gal cells had been stably transfected with a construct identical to the HMGal construct (using the same vector, promoter, and 5' and 3' flanking regions) except that the construct in the CHO-Gal cells codes for a soluble β-galactosidase protein instead of the HMGal fusion protein with the membrane domain of HMG-CoA reductase. In this experiment, the CHO-Gal cells served to control for any artifacts farnesyl acetate might cause in the β-galactosidase assay or any nonspecific effects farnesyl acetate might have on the rates of protein synthesis or degradation."}, "[2]": {"tested_on": "HMGal", "assay": "HMGal synthesis rate ([35S]methionine incorporation)", "details": "10 μg/ml", "procedure": "(§1) Measurement of HMGal and HMG-CoA Reductase Synthesis Rates Cells plated into 60×15 mm dishes were grown in 5% LPS MEM with 0.25 mg/ml active geneticin for 24 hours. These cells were washed with PBS and grown for 24 hours in 5% LPS MEM supplemented with 0.25 mg/ml active geneticin, 10 μM compactin and 0.1 mM mevalonate. After 24 hours, the medium was removed, the cells were washed with PBS and the medium was replaced with methionine-free MEM supplemented with 5% LPS, 250 μg/ml of active geneticin, 10 μM compactin, and 0.1 mM mevalonate. In addition, 20 mM mevalonate or 10 μg/ml farnesyl acetate was included in those plates previously treated with these compounds. […] Cells were washed, lysed and the HMGal and HMG-CoA reductase proteins were immunoprecipitated, subjected to SDS-PAGE and quantified. […]\n(§2) Farnesyl compounds reduce translation and stimulate degradation of HMG-CoA reductase and HMGal A reduction in HMGal specific activity triggered by the farnesyl compounds could have been the result of a decrease in HMGal synthesis, an increase in HMGal degradation, or a combination of changes in both the synthesis and degradation rates. In order to test whether the farnesyl compounds impact synthesis, the rates of HMGal, HMG-CoA reductase, and total cellular protein synthesis were measured by [^35 S]methionine incorporation in the presence and absence of 10 μg/ml farnesyl acetate."}, "[3]": {"tested_on": "total cellular protein", "assay": "Total cellular protein synthesis (TCA-precipitable counts)", "details": "10 μg/ml", "procedure": "as §1, §2"}, "[4]": {"tested_on": "HMG-CoA reductase", "assay": "HMG-CoA reductase degradation rate (pulse-chase)", "details": "10 μg/ml during chase; untreated 9.3 hours", "procedure": "(§3) Measurement of HMGal and HMG-CoA Reductase Degradation Rates Cells grown in 60×15 mm dishes were washed once with ice-cold PBS and starved for 1 hour in 1 ml of methionine-free MEM supplemented with 5% LPS, 250 μg/ml of active geneticin, 10 μM compactin, and 0.1 mM mevalonate. These cells were radio-labeled for 2 hours in 300 μl of the methionine-free starvation medium containing 100 μCi of Tran^35 S-label (>1,000 Ci/mmol). Cells were incubated in an MEM-based chase medium containing 2 mM methionine, 5% LPS, 250 μg/ml of active geneticin, 10 μM compactin, and 0.1 mM mevalonate. During the chase period, some plates also had either 20 mM mevalonate, 10 μg/ml farnesyl acetate or 10 μg/ml ethyl farnesyl ether added to them as indicated in the figure legend. Following the chase, cells were washed, lysed and the HMGal and HMG-CoA reductase proteins were immunoprecipitated, subjected to SDS-PAGE and quantified.\n(§4) In order to test whether the farnesyl compounds impact degradation, the rates of degradation for HMGal, HMG-CoA reductase, and total cellular protein were measured in the presence and absence of 10 μg/ml farnesyl acetate and ethyl farnesyl ether."}, "[5]": {"tested_on": "total cellular protein", "assay": "Total cellular protein degradation", "details": "10 μg/ml", "procedure": "as §3, §4"}, "[6]": {"tested_on": "cholesterol biosynthetic pathway", "assay": "TLC distribution of [3H]acetate-derived non-saponifiable lipids (site of metabolic block)", "set-up": "radioactivity in the cell-derived fraction co-migrating with lanosterol / radioactivity in the cell-derived fraction co-migrating with squalene / radioactivity in the cell-derived fraction co-migrating with cholesterol / remaining radioactivity in the cell-derived fraction scattered throughout the rest of the TLC lane: concentration or dose not given beside the values", "procedure": "Lipid Saponification and Extraction Procedure Saponification and extraction of lipids from cell and media samples was performed as previously described in Bradfute, et al. (1992) J.B.C. 267:18308-18314.\nThin Layer Chromatography--TLC was performed using Analtech 250 μm silica gel G plates with a hexanes/diethyl ether (1:1) solvent system. Lipid standards were visualized by iodine staining. Bands were scraped from the plate and their radioactivity was measured.\nQuantification of Radioactivity--Samples were suspended in 4 ml of scintillation fluid (Cytoscint from ICN). The radioactivity of the samples was measured using a Beckman LS-7500 scintillation counter.\nTo determine tile site of tile metabolic block caused by farnesyl acetate and ethyl farnesyl ether, the non-saponifiable lipids from cells grown in the presence of the farnesyl compounds were examined for the accumulation of intermediates in the cholesterol biosynthetic pathway. The cells were only labeled for 1 hour and only treated with the farnesyl compounds during the labeling period; so that any intermediates which accumulated would be as a result of the inhibitory effects of the farnesol compounds and not subsequent regulatory effects on HMG-CoA reductase. CHO-HMGal cells were incubated with [^3 H]acetate and either farnesyl acetate, ethyl farnesyl ether, or no additive. The non-saponifiable lipids were isolated from both the cell, and the medium and separated by TLC."}, "[7]": {"details": "1 hour labeling with [3H]acetate, compound only during labeling"}}}
{"smiles": "CC(=O)OCC=C(C)CCC=C(C)CCC=C(C)C", "note": "[farnesyl acetate]", "values": [{"measurement": "change of β-galactosidase activity of CHO-Gal cells", "setting": "[1]; 10 μg/ml", "value": "not changed significantly"}, {"measurement": "change of β-galactosidase activity of CHO-Gal cells", "setting": "[1]; 20 μg/ml", "value": "essentially unchanged"}, {"measurement": "reduction in the rate of HMGal synthesis", "setting": "[2]", "value": 80, "unit": "%"}, {"measurement": "effect on total protein synthesis (TCA-precipitable counts)", "setting": "[3]", "value": "Neither farnesyl acetate nor mevalonate have a significant effect"}, {"measurement": "half-life of HMG-CoA reductase", "setting": "[4]", "value": 3.6, "unit": "h"}, {"measurement": "reduction of the half-life of HMG-CoA reductase", "setting": "[4]", "value": 60, "unit": "%"}, {"measurement": "effect on the degradation of total cellular protein", "setting": "[5]", "value": "Neither farnesyl compound had a significant effect"}, {"measurement": "radioactivity in the cell-derived fraction co-migrating with cholesterol", "setting": "[6]; [7]", "value": 4, "unit": "%"}, {"measurement": "radioactivity in the cell-derived fraction co-migrating with lanosterol", "setting": "[6]; [7]", "value": 74, "unit": "%"}, {"measurement": "radioactivity in the cell-derived fraction co-migrating with squalene", "setting": "[6]; [7]", "value": 9, "unit": "%"}, {"measurement": "remaining radioactivity in the cell-derived fraction scattered throughout the rest of the TLC lane", "setting": "[6]; [7]", "value": 13, "unit": "%"}, {"measurement": "total non-saponifiable radioactivity found in the medium", "setting": "[6]; untreated 6%", "value": 12, "unit": "%"}, {"measurement": "total non-saponifiable radioactivity found in the cells", "setting": "[6]; untreated 94%", "value": 88, "unit": "%"}, {"measurement": "increase in media-derived material co-migrating with farnesol", "setting": "[6]; versus untreated sample", "value": "~3", "unit": "fold"}]}
